For 21 compounds, GI50 results are on record in patent US12679822B2, “Alkenyl pyrimidine compound, preparation method therefor, and application thereof” (Hongyun Biotech Co., Ltd., priority 2020, dated 2026).

Holding throughout (type): cell-based
The target of assay [1] is BaF3 cell lines stably transfected with kinase EGFR Del (Homo sapiens, UniProt P00533, cells depend on it, form not given). As to the kind of experiment: Growth inhibition of BaF3 cell line stably transfected with kinase EGFR Del (MTS). Conditions: 48 h, read-out: growth inhibitory activity IC50, Del. The protocol: (§1) Biological Activity Assay: Growth Inhibitory Activity of Compounds on Cell Lines Stably Transfected with Kinase
(§2) The activity of compounds against various mutants of kinase EGFR was evaluated by their effect of inhibiting growth of BaF3 cell lines stably transfected with kinase. The specific test method was given as follows:
(§3) 1) Culture medium: DMEM (Dulbecco's modified eagle medium) or RPMI 1640 (containing 10% fetal bovine serum, 100 μg/mL ampicillin, 100 μg/mL streptomycin).
(§4) 2) Reagent: MTS reaction solution (containing 2 mg/mL of MTS [3-(4,5-di methylthiazol-2-yl)-5-(3-carboxymethoxyphenyl)-2-(4-sulfophenyl)-2H-tetrazolium, inner Salt]; 100 μg/mL of PES (phenazine […])).
(§5) 3) Compound test: cells were incubated into a 96-well culture plate, the volume of cytosol was 90 μL, and then 10 μL of the compound at each gradient concentration was added. That is, the highest concentration was 10 μM, which was diluted stepwise by ⅓, and 8 concentration points were set in total; 0.1% DMSO (dimethyl sulfoxide) was contained in the system. The cell plate with uniformly mixed compound was cultured in a cell culture incubator (37° C.; 5% […]) for 48 h, then 20 μL of MTS reaction solution was added, uniformly mixed and incubated in the cell culture incubator (37° C.; 5% CO2) for 1-4 h; OD values at 490 nm were measured by a microplate reader (VARIOSKAN FLASH, Thermo). Two parallels were set in each group of experiments, with 0.1% (a final concentration) DMSO as a negative control, and a culture medium without cells and compounds as a blank control. The cell growth inhibition rate was calculated by the following formula: Cell growth inhibition rate %=1−(ODexperimental group−ODblank group)/(ODnegative group−ODblank group)×100%.
(§6) 4) IC50 calculation: The semi-inhibitory concentration of the compounds acting on cells was calculated using GradPad Prism 5 software according to the measured cell growth inhibition rate.

The target in assay [2] is BaF3 cell lines stably transfected with kinase EGFR L858R (Homo sapiens, UniProt P00533, L858R, cells depend on it). As to the kind of experiment: Growth inhibition of BaF3 cell line stably transfected with kinase EGFR L858R (MTS). Conditions: 48 h, read-out: growth inhibitory activity IC50, L858R. The procedure: as §1, §2, §3, §4, §5, §6
Assay [3] concerns the target BaF3 cell lines stably transfected with kinase EGFR Del/T790M (Homo sapiens, UniProt P00533, T790M, cells depend on it, form not given). Put plainly: Growth inhibition of BaF3 cell line stably transfected with kinase EGFR Del/T790M (MTS). Conditions: 48 h, read-out: growth inhibitory activity IC50, Del/T790M. The protocol: as §1, §2, §3, §4, §5, §6
Assay [4] addresses BaF3 cell lines stably transfected with kinase EGFR L858R/T790M (Homo sapiens, UniProt P00533, T790M/L858R, cells depend on it). As to the kind of experiment: Growth inhibition of BaF3 cell line stably transfected with kinase EGFR L858R/T790M (MTS). Conditions: 48 h, read-out: growth inhibitory activity IC50, L858R/T790M. The protocol: as §1, §2, §3, §4, §5, §6
Assay [5] concerns the target BaF3 cell lines stably transfected with kinase EGFR Del/T790M/C797S (Homo sapiens, UniProt P00533, T790M/C797S, cells depend on it, form not given). Put plainly: Growth inhibition of BaF3 cell line stably transfected with kinase EGFR Del/T790M/C797S (MTS). The following applies: 48 h, read-out: growth inhibitory activity IC50, Del/T790M/C797S. The protocol: as §1, §2, §3, §4, §5, §6

Assay [6] deals with BaF3 cell lines stably transfected with kinase EGFR L858R/T790M/C797S (Homo sapiens, UniProt P00533, T790M/C797S/L858R, cells depend on it). Put plainly: Growth inhibition of BaF3 cell line stably transfected with kinase EGFR L858R/T790M/C797S (MTS). Conditions: 48 h, read-out: growth inhibitory activity IC50, L858R/T790M/C797S. The protocol:
as §1, §2, §3, §4, §5, §6

BaF3 cell lines stably transfected with kinase EGFR L858R/T790M, sequence (P00533 whole entry T790M/L858R): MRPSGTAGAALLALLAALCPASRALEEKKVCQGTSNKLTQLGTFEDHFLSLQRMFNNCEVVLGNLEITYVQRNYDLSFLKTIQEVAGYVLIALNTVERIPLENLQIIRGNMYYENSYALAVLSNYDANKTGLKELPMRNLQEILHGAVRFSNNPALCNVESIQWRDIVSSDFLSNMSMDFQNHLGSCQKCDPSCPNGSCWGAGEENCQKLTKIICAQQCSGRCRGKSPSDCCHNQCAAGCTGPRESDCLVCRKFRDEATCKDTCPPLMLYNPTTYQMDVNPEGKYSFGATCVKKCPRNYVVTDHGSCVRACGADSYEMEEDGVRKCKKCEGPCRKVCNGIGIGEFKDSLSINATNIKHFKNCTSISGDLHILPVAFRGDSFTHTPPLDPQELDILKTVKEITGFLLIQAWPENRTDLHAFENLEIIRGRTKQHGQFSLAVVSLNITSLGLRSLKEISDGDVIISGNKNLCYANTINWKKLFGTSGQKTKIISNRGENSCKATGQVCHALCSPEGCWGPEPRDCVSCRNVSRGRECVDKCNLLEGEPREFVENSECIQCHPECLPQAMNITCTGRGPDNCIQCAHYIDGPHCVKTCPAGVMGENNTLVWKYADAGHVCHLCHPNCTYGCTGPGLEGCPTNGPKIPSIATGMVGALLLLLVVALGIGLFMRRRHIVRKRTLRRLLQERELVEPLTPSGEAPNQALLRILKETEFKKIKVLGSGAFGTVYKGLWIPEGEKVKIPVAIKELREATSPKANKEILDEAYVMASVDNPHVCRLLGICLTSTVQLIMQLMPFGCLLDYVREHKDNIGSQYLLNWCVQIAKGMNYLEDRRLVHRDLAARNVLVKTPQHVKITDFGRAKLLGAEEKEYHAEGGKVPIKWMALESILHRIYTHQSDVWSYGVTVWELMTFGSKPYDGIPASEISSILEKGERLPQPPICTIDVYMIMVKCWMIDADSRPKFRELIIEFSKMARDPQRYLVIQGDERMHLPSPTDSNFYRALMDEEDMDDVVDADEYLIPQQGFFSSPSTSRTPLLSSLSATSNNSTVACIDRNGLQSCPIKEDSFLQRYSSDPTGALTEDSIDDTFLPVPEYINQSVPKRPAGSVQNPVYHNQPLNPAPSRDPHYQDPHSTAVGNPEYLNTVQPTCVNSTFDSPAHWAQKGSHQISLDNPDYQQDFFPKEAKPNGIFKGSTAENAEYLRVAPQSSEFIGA
BaF3 cell lines stably transfected with kinase EGFR L858R/T790M/C797S, sequence (P00533 whole entry T790M/C797S/L858R): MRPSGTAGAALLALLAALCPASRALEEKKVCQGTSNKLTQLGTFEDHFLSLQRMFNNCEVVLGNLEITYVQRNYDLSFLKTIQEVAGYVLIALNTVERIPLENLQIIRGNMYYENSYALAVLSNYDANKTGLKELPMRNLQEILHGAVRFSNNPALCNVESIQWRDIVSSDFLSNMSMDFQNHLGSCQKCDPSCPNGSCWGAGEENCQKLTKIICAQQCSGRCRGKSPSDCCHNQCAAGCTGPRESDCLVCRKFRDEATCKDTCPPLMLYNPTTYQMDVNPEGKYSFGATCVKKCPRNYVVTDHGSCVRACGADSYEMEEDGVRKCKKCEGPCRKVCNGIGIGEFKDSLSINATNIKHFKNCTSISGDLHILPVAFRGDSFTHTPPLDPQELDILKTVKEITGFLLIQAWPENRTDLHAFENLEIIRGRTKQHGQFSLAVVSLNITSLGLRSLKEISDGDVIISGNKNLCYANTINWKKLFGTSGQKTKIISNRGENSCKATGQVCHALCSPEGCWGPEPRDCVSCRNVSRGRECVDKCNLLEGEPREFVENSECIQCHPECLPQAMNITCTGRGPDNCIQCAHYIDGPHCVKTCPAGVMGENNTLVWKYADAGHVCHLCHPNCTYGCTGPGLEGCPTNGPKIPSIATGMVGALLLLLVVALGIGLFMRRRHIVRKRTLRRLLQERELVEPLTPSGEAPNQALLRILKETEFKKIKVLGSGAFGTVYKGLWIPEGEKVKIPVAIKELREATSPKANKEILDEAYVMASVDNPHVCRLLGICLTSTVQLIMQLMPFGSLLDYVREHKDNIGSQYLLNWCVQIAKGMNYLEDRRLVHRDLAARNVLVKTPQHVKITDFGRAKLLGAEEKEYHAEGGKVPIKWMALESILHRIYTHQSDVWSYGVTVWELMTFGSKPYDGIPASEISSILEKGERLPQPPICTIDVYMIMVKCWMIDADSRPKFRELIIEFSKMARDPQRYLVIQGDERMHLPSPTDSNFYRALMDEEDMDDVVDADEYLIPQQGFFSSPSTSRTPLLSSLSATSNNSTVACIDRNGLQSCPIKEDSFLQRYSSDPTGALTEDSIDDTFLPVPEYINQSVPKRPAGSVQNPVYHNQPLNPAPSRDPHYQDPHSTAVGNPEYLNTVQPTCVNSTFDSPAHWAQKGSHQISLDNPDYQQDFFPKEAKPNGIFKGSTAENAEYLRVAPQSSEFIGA
BaF3 cell lines stably transfected with kinase EGFR Del/T790M/C797S, sequence (P00533 with tags, fused parts or gaps DEL746-750/T790M/C797S, form open): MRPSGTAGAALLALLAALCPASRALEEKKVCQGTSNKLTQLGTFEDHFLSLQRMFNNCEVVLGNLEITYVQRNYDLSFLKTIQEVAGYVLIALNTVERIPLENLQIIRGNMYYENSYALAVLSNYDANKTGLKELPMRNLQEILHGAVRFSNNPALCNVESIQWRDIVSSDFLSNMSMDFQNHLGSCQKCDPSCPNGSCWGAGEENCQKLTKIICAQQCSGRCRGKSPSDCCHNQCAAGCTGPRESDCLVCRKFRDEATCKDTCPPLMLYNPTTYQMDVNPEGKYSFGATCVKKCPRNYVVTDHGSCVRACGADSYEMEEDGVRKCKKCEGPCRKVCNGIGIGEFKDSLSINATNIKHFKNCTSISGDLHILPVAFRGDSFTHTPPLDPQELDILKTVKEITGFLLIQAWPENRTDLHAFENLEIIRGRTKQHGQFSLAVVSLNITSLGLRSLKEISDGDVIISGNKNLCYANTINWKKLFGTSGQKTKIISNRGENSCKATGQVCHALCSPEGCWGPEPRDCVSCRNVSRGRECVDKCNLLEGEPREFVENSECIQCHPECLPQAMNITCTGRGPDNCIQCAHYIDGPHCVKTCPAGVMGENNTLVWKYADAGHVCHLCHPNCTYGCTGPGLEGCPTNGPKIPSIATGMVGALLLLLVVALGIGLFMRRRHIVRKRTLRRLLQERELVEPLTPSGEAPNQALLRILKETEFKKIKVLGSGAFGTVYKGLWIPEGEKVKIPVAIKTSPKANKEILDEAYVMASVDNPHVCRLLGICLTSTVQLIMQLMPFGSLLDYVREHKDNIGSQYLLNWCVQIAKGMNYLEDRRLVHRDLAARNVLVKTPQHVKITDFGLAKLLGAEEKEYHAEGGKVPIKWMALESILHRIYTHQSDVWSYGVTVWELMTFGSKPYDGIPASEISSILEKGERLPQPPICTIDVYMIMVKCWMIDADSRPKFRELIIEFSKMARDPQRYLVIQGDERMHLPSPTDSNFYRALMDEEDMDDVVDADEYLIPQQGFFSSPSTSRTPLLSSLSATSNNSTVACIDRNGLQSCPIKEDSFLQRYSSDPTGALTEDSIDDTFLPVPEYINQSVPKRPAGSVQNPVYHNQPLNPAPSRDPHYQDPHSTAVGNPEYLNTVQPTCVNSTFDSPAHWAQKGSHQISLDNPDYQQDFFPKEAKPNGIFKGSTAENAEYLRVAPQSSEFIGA
BaF3 cell lines stably transfected with kinase EGFR Del/T790M, sequence (P00533 with tags, fused parts or gaps DEL746-750/T790M, form open): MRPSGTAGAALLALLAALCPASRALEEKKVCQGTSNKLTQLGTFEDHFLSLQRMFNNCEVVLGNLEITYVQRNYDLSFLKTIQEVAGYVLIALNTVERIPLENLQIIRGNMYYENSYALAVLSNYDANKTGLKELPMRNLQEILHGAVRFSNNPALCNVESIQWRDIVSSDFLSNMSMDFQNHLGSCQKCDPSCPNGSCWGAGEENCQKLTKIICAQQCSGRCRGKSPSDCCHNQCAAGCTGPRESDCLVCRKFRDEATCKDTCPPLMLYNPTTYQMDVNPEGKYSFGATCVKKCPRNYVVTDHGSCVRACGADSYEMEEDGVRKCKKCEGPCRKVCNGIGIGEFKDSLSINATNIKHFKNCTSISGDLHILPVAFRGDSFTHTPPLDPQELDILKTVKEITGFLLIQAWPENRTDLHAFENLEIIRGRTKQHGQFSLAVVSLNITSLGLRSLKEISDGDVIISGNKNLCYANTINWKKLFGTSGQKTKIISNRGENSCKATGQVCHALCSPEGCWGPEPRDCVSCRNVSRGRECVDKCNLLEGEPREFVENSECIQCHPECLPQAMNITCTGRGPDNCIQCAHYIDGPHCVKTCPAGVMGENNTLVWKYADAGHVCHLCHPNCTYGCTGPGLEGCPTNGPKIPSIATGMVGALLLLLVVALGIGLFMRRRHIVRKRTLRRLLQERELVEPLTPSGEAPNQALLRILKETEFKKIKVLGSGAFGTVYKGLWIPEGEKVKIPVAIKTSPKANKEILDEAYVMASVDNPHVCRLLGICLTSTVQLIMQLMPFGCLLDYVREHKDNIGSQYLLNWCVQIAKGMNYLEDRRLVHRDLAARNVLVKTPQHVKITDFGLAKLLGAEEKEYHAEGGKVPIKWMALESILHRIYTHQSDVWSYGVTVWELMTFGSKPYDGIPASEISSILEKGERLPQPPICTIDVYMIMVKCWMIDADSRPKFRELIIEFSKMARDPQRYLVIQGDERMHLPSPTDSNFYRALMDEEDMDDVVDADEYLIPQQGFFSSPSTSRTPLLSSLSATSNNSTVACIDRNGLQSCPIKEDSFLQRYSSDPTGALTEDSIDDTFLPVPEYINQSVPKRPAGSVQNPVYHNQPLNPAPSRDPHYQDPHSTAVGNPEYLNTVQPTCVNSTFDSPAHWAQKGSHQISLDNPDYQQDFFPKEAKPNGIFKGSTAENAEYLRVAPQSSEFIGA

Consider `C=Cc1cnc(Nc2cc(CC)c(N3CCC(N4CCN(C)CC4)CC3)cc2OC)nc1Nc1ccc2nccnc2c1N(C)S(C)(=O)=O` [II-1], for which the GI50 in assay [1], in assay [2], in assay [3], in assay [4], in assay [5] and in assay [6] was not above 50 nM in each case.
Consider `C=Cc1cnc(Nc2cc(CC)c(N3CCC(N(C)C)CC3)cc2OC)nc1Nc1ccc2nccnc2c1N(C)S(C)(=O)=O` [II-2], for which the GI50 in assay [1], in assay [2], in assay [3], in assay [4], in assay [5] and in assay [6] was not above 50 nM throughout.
On to `C=Cc1cnc(Nc2cc(CC)c(N3CCC(N(C)C)C3)cc2OC)nc1Nc1ccc2nccnc2c1N(C)S(C)(=O)=O` (stereo not drawn) [II-3], for which the GI50 in assay [1], in assay [2], in assay [3], in assay [4], in assay [5] and in assay [6] was not above 50 nM throughout.
With `C=Cc1cnc(Nc2cc(CC)c(N3CCN(C)CC3)cc2OC)nc1Nc1ccc2nccnc2c1N(C)S(C)(=O)=O` [II-4], the GI50 in assay [1], in assay [2], in assay [3], in assay [4], in assay [5] and in assay [6] was not above 50 nM each time.
Regarding `C=Cc1cnc(Nc2cc(CC)c(N3CCC(N4CCN(C)CC4)CC3)nc2OC)nc1Nc1ccc2nccnc2c1N(C)S(C)(=O)=O` [II-5], the GI50 in assay [1] was 50 to 500 nM; in assay [2], 50 to 500 nM; in assay [3], not above 50 nM; in assay [4], not above 50 nM; in assay [5], 50 to 500 nM; in assay [6] it was 50 to 500 nM.
With `C=Cc1cnc(Nc2cc(CC)c(N3CCC(N4CCN(C)CC4)CC3)cc2OC(F)(F)F)nc1Nc1ccc2nccnc2c1N(C)S(C)(=O)=O` [II-6], the GI50 in assay [1] was 50 to 500 nM; in assay [2], 50 to 500 nM; in assay [3] it was not above 50 nM; in assay [4], 50 to 500 nM; in assay [5], not above 50 nM; in assay [6] it was 50 to 500 nM.
Regarding `C=Cc1cnc(Nc2cc(CC3CC3)c(N3CCC(N4CCN(C)CC4)CC3)cc2OC)nc1Nc1ccc2nccnc2c1N(C)S(C)(=O)=O` [II-7], the GI50 in assay [1], in assay [2], in assay [3], in assay [4], in assay [5] and in assay [6] was not above 50 nM each time.
Take `C=Cc1cnc(Nc2cc(CC)c(N3CCC(N4CCN(C)CC4)CC3)cc2OC)nc1Nc1ccc2nccnc2c1N(C)S(=O)(=O)C(F)(F)F` [II-8]: the GI50 in assay [1], in assay [2], in assay [3], in assay [4], in assay [5] and in assay [6] was 50 to 500 nM in each case.
On to `C=Cc1cnc(Nc2cc(CC)c(N3CCC(N4CCN(C)CC4)CC3)cc2OC)nc1Nc1ccc2nccnc2c1N(C)S(=O)(=O)CC` [II-9], for which the GI50 in assay [1] is 50 to 500 nM; in assay [2] it was 50 to 500 nM; in assay [3] it was not above 50 nM; in assay [4] it was 50 to 500 nM; in assay [5], 50 to 500 nM; in assay [6], not above 50 nM.
Consider `C=Cc1cnc(Nc2cc(CC)c(N3CCC(N4CCN(C)CC4)CC3)cc2OC)nc1Nc1ccc2nccnc2c1N(C)S(=O)(=O)C1CC1` [II-11], for which the GI50 is not above 50 nM in assay [1]; 50 to 500 nM in assay [2]; not above 50 nM in assay [3]; 50 to 500 nM in assay [4]; 50 to 500 nM in assay [5]; 50 to 500 nM in assay [6].
As to `C=Cc1cnc(Nc2cc(CC)c(N3CCC(N4CCN(C)CC4)CC3)cc2OC)nc1Nc1ccc2nccnc2c1N(CC)S(C)(=O)=O` [II-12], the GI50 in assay [1], in assay [2], in assay [3], in assay [4], in assay [5] and in assay [6] was not above 50 nM throughout.
With `C=Cc1cnc(Nc2cc(CC)c(N3CCC(N4CCN(C)CC4)CC3)cc2OC)nc1Nc1ccc2nccnc2c1N(C1CC1)S(C)(=O)=O` [II-14], the GI50 was not above 50 nM in assay [1]; not above 50 nM in assay [2]; not above 50 nM in assay [3]; not above 50 nM in assay [4]; 50 to 500 nM in assay [5]; not above 50 nM in assay [6].
Regarding `C=Cc1cnc(Nc2cc(C)c(N3CCC(N4CCN(C)CC4)CC3)cc2OC)nc1Nc1ccc2nccnc2c1N(C)S(C)(=O)=O` [II-15], the GI50 in assay [1], in assay [2], in assay [3], in assay [4], in assay [5] and in assay [6] was not above 50 nM in each case.
For `C=Cc1cnc(Nc2ccc(N3CCC(N4CCN(C)CC4)CC3)cc2OC)nc1Nc1ccc2nccnc2c1N(C)S(C)(=O)=O` [II-16], the GI50 in assay [1] was in the range of 50 to 500 nM; in assay [2], 500 to 2500 nM; in assay [3], 50 to 500 nM; in assay [4], 500 to 2500 nM; in assay [5], 50 to 500 nM; in assay [6], 50 to 500 nM.
Regarding `C=Cc1cnc(Nc2cc(C(C)C)c(N3CCC(N4CCN(C)CC4)CC3)cc2OC)nc1Nc1ccc2nccnc2c1N(C)S(C)(=O)=O` [II-17], the GI50 was 50 to 500 nM in assay [1]; 500 to 2500 nM in assay [2]; 50 to 500 nM in assay [3]; 50 to 500 nM in assay [4]; 50 to 500 nM in assay [5]; 50 to 500 nM in assay [6].
On to `C=Cc1cnc(Nc2cc(C3CC3)c(N3CCC(N4CCN(C)CC4)CC3)cc2OC)nc1Nc1ccc2nccnc2c1N(C)S(C)(=O)=O` [II-18], for which the GI50 in assay [1] is 50 to 500 nM; in assay [2], 50 to 500 nM; in assay [3], not above 50 nM; in assay [4], 50 to 500 nM; in assay [5], 50 to 500 nM; in assay [6] it was 50 to 500 nM.
As for `C=Cc1cnc(Nc2cc(Cc3ccccc3)c(N3CCC(N4CCN(C)CC4)CC3)cc2OC)nc1Nc1ccc2nccnc2c1N(C)S(C)(=O)=O` [II-19], the GI50 was 500 to 2500 nM in assay [1]; 500 to 2500 nM in assay [2]; 50 to 500 nM in assay [3]; 500 to 2500 nM in assay [4]; not above 50 nM in assay [5]; 50 to 500 nM in assay [6].
As for `C=Cc1cnc(Nc2ccc(N3CCC(N4CCN(C)CC4)CC3)c(CC)c2)nc1Nc1ccc2nccnc2c1N(C)S(C)(=O)=O` [II-20], the GI50 in assay [1], in assay [2], in assay [3], in assay [4], in assay [5] and in assay [6] was not above 50 nM throughout.
As to `C=C(C)c1cnc(Nc2cc(CC)c(N3CCC(N4CCN(C)CC4)CC3)cc2OC)nc1Nc1ccc2nccnc2c1N(C)S(C)(=O)=O` [II-21], the GI50 in assay [1], in assay [2], in assay [3], in assay [4], in assay [5] and in assay [6] was not above 50 nM in each case.
In the case of `C=C(C)c1cnc(Nc2cc(C(C)C)c(N3CCC(N4CCN(C)CC4)CC3)cc2OC)nc1Nc1ccc2nccnc2c1N(C)S(C)(=O)=O` [II-22], the GI50 in assay [1] was in the range of 50 to 500 nM; in assay [2] it was 50 to 500 nM; in assay [3], 50 to 500 nM; in assay [4], 50 to 500 nM; in assay [5], 50 to 500 nM; in assay [6] it was 500 to 2500 nM.
On to `C=C(C)c1cnc(Nc2cc(C3CC3)c(N3CCC(N4CCN(C)CC4)CC3)cc2OC)nc1Nc1ccc2nccnc2c1N(C)S(C)(=O)=O` [II-23], for which the GI50 in assay [1] was not above 50 nM; in assay [2], not above 50 nM; in assay [3], not above 50 nM; in assay [4], not above 50 nM; in assay [5] it was 50 to 500 nM; in assay [6], 50 to 500 nM.
